Publication PMC9939733 (The Journal of Biological Chemistry, 2023)
Positions count from the first letter of the chain named. Read-outs that look alike come from different tables or passages of the source.

Experiments:
Assay type in all cases: biochemical
[1] = molecular target: T1, R140Q IDH2 (Homo sapiens, UniProt P48735, R140Q); test: Absorbance assay (NADPH consumption), substrate turnover in the absence of 2OG
T1 construct: made in house; host or cells: Sf21 insect cells (cell pellets prepared at Evotec)
T1 sequence (P48735 40-452 R140Q): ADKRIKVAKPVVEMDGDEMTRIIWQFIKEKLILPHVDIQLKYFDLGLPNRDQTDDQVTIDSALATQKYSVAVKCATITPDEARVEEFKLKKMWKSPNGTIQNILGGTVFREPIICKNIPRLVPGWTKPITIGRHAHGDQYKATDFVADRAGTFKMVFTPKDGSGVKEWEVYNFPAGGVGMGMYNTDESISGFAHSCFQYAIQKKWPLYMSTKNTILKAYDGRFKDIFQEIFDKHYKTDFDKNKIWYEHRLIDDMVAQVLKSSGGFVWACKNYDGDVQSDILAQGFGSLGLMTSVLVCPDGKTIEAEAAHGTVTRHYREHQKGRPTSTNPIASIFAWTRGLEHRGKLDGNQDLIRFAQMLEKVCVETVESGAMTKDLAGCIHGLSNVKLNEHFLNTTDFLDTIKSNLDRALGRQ
Description: (§1) Compounds were dispensed using a CyBio SDW-CW CyBi-Well Simultaneous Pipettor and assay started using a ThermoFisher Multidrop Combi reagent dispenser.
(§2) Reactions were performed as technical quadruplicates.

[2] = molecular target: T2, R172K IDH2 (Homo sapiens, UniProt P48735, R172K); test: as above
T2 construct: made in house; host or cells: Sf21 insect cells (cell pellets prepared at Evotec)
T2 sequence (P48735 40-452 R172K): T1 sequence (P48735 40-452 R140Q) with Q101R, R133K
Description: as §1, §2

[3] = molecular target: T1, R140Q IDH2; test: Absorbance assay, variant activity in the presence of equimolar 2OG (inhibition screen)
Description: as §1, §2

[4] = molecular target: T2, R172K IDH2; test: as above
Description: as §1, §2

[5] = molecular target: T3, WT IDH1 (Homo sapiens, UniProt O75874); test: Absorbance assay, WT activity in the presence of equimolar DL-isocitrate (inhibition)
T3 construct: made in house; host or cells: Escherichia coli BL21(DE3) pLyS
T3 sequence (O75874 whole entry): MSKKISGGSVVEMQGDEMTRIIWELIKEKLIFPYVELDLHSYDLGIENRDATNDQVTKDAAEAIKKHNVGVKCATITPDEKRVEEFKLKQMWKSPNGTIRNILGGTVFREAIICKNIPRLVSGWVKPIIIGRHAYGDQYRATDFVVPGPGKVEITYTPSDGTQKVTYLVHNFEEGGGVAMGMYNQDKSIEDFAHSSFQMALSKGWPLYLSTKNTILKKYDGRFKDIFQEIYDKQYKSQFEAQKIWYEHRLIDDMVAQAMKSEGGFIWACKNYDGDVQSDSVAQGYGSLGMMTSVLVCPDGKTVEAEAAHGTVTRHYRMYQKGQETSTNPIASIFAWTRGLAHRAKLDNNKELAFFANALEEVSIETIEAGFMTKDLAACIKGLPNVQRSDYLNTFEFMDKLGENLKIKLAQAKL
Description: as §1, §2

[6] = molecular target: T4, WT IDH2 (Homo sapiens, UniProt P48735); test: as above
T4 construct: made in house; host or cells: Sf21 insect cells (cell pellets prepared at Evotec)
T4 sequence (P48735 40-452): T1 sequence (P48735 40-452 R140Q) with Q101R
Description: as §1, §2

[7] = molecular target: T5, R132H IDH1 (Homo sapiens, UniProt O75874, R132H); test: Absorbance assay (NADPH consumption), substrate turnover in the absence of 2OG; design: made in house; host or cells: Escherichia coli BL21(DE3) pLyS
T5 sequence (O75874 whole entry R132H): as the sequence (O75874 whole entry) above, with R132H counted along it
Description: as §1, §2

[8] = molecular target: T5, R132H IDH1; test: Absorbance assay, variant activity in the presence of equimolar 2OG (inhibition screen); design: made in house; host or cells: Escherichia coli BL21(DE3) pLyS
Description: as §1, §2

[9] = no 2OG, 6.0 mM test compound, 0.03 μM R140Q IDH2, 50 μM NADPH, 2OG = 100
[10] = no 2OG, 1.0 mM test compound, 0.03 μM R172K IDH2, 50 μM NADPH, 2OG = 100
[11] = 6.0 mM 2OG and 6.0 mM test compound, 0.03 μM R140Q IDH2, 50 μM NADPH
[12] = 1.0 mM 2OG and 1.0 mM test compound, 0.03 μM R172K IDH2, 50 μM NADPH
[13] = […] isocitrate and […] test compound, 75 μM NADP+, 2.0 nM WT IDH1
[14] = […] isocitrate and […] test compound, 75 μM NADP+, 2.0 nM WT IDH2
[15] = no 2OG, […] test compound, 0.03 μM R132H IDH1, 50 μM NADPH, 2OG = 100
[16] = […] 2OG and […] test compound, 0.03 μM R132H IDH1, 50 μM NADPH

SMILES	activity [%] (%-substrate conversion after 20 min incubation) [1, 9]	activity [%] (%-substrate conversion after 20 min incubation) [2, 10]	activity [%] (%-substrate conversion after 20 min incubation) [3, 11]	activity [%] (%-substrate conversion after 20 min incubation) [4, 12]	activity [%] (%-substrate conversion after 20 min incubation) [5, 13]	activity [%] (%-substrate conversion after 20 min incubation) [6, 14]	activity [%] (%-substrate conversion after 20 min incubation) [7, 15]	activity [%] (%-substrate conversion after 20 min incubation) [8, 16]	activity [%] (%-substrate conversion after 20 min incubation) ([1]; no 2OG, 6.0 mM test compound, 0.03 μM R140Q IDH2, 50 μM NADPH, 2OG = 100, listed as DL-4-hydroxy-2OG)	activity [%] (%-substrate conversion after 20 min incubation) [1]	activity [%] (%-substrate conversion after 20 min incubation) [2]	activity [%] (%-substrate conversion after 20 min incubation) [3]	activity [%] (%-substrate conversion after 20 min incubation) [4]	activity [%] (%-substrate conversion after 20 min incubation) [5]	activity [%] (%-substrate conversion after 20 min incubation) [6]	activity [%] (%-substrate conversion after 20 min incubation) [7]	activity [%] (%-substrate conversion after 20 min incubation) [8]
O=C(O)CCC(O)C(=O)O (racemic) [DL-2-hydroglutaric acid]	< 10%	< 10%	98 ± 8%	95 ± 4%	94 ± 2%	95 ± 3%	< 10%	89 ± 5%									
O=C(O)C(=O)CC(O)C(=O)O (racemic) [DL-4-hydroxy-2-oxoglutaric acid]	27 ± 3%	< 10%	124 ± 8%	98 ± 3%	89 ± 1%	87 ± 1%	< 10%	82 ± 5%	~20%								
COC(=O)CC(C)C(=O)OC (racemic) [DL-dimethyl 2-methylsuccinate]	< 10%	< 10%	116 ± 4%	91 ± 4%	103 ± 1%	100 ± 2%	< 10%	104 ± 2%									
O=C(O)C(=O)CCc1ccccc1 [2-oxo-4-phenylbutanoic acid]	< 10%	< 10%	98 ± 8%	96 ± 1%	94 ± 2%	96 ± 6%	< 10%	90 ± 3%									
CSCCC(=O)C(=O)O [4-methylthio-2-oxobutyric acid]	< 10%	< 10%	99 ± 5%	96 ± 1%	102 ± 2%	98 ± 3%	< 10%	97 ± 1%									
O=C(O)CC(O)(CC(=O)O)C(=O)O [DL-citric acid]										< 10%	< 10%	122 ± 14%	94 ± 4%	103 ± 3%	101 ± 3%	< 10%	115 ± 25%
N[C@@H](CCCC(=O)O)C(=O)O [L-2-aminoadipic acid]	< 10%	< 10%	82 ± 4%	104 ± 1%	108 ± 4%	101 ± 5%	< 10%	104 ± 7%									
COC(=O)CCC(=O)C(=O)OC [dimethyl 2-oxoglutaric acid]	< 10%	< 10%	124 ± 12%	100 ± 9%	98 ± 1%	97 ± 2%	< 10%	95 ± 3%									
CC(C)CC(=O)C(=O)O [α-ketoisocaproic acid]	< 10%	< 10%	106 ± 6%	104 ± 2%	102 ± 2%	102 ± 4%	< 10%	99 ± 2%									
CC[C@H](C)C(=O)C(=O)O [α-ketoisoleucine]	< 10%	< 10%	102 ± 5%	94 ± 5%	105 ± 4%	98 ± 3%	< 10%	104 ± 2%									
